Reference: patent US12129312B2, “Peptide compound, application thereof and composition containing same” (priority 2017, dated 2024)
Square brackets hold non-standard residues; d marks the D form. Peptide text beside a SMILES is read from it. * marks the point of attachment. Bpa = N[C@@H](Cc1ccc(C(=O)c2ccccc2)cc1)C(=O)O; 1Nal = N[C@@H](Cc1cccc2ccccc12)C(=O)O; 2Nal = N[C@@H](Cc1ccc2ccccc2c1)C(=O)O; dNMeY = CN[C@H](Cc1ccc(O)cc1)C(=O)O; NEtLeu = CCN[C@@H](CC(C)C)C(=O)O; NMeQ = CN[C@@H](CCC(N)=O)C(=O)O; Tic = O=C(O)[C@@H]1Cc2ccccc2CN1; Gly(N-CH2CH2OH) = O=C(O)CNCCO; NMeL = CN[C@@H](CC(C)C)C(=O)O; NMeS = CN[C@@H](CO)C(=O)O; Aze = O=C(O)[C@@H]1CCN1; X8 = O=C(c1c(O)cccc1O)*; Hexanoyl = CCCCCC(=O)*

Biological target: T1, human Chemokine like receptor 1 (Homo sapiens, UniProt Q99788)
T1 construct: host or cells: U2OS (Tango CMKLR1-bla U2OS)
T1 sequence (Q99788 1-373): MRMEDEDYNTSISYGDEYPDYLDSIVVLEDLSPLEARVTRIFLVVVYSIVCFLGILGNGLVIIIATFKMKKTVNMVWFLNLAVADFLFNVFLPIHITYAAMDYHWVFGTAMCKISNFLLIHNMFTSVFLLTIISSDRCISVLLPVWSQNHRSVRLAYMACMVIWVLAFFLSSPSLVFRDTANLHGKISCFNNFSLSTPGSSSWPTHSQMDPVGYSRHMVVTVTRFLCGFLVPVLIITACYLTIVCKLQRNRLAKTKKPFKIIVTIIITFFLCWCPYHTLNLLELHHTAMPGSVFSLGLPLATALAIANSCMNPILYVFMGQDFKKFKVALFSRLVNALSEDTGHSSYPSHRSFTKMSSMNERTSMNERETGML
Assay: Activation of Tango CMKLR1-bla U2OS cells (beta-lactamase FRET reporter)
Type: cell-based
Conditions: not given
Procedure: The polypeptide sequences described above are the polypeptide sequences disclosed in the patent JP2010-229093A of BANYU PHARMA CO LTD: (D-Tyr)-Phe-Leu-Pro-(D-Ser)-Gln-Phe-(D-Ala)-Tic-Ser was used as a positive control (SEQ ID NO: 102).
The activation of the compound on Tango™ CMKLR1-bla U2OS cells (Invitrogen Cat. nos. K1551) was tested.
The activation of each compound in the above experiments on Tango™ CMKLR1-bla U2OS cells was determined as follows:
Day 1: Cell Seeding on Plate
2. The medium was removed, and the cells were washed with DPBS twice, followed by addition of 3 mL of 0.05% trypsin, and placed in a 37° C., 5% CO2 incubator (Thermo Fisher, Waltham, Massachusetts, USA) for 3-5 minutes. After the cells were rounded, 3-5 mL of medium (medium formula: DMEM 90%, Dialyzed FBS 10%, NEAA 0.1 mM, HEPES (pH 7.3) 25 mM, Penicillin 100 U/mL, Streptomycin 100 μg/mL) was added to terminate digestion.
2. The digested cells were transferred to a 15 mL centrifuge tube (430790, Corning), centrifuged at 1000 rpm for 5 minutes (5810R, Eppendorf, Hamburg, Germany), and the supernatant was discarded.
3. 7 mL of medium (DMEM+10% FBS) was added, blowed into a single cell suspension, counted by a cell counter, and adjusted the cell suspension to a desired cell density of 250,000/mL with the medium.
4. The cell suspension was seeded into a 384-well cell plate (Corning 3712) in 40 μL/well to make the number of cells 10000 cells/well, and 32 μL of medium was added to the blank control.
5. The incubation was performed overnight at 37° C. under 5% CO2.
Day 2: Dosing and Testing
1. Preparation of 200× Compound Plate
1.1 The test compound was formulated into a 10 mM working solution in DMSO.
1.2 45 μL of 10 mM test compound was added to the 2nd column of rows A to P in the Echo-384 well plate. The compound was subjected to a 3-fold dilution with Precision (30 μL of DMSO was added to the 3rd to 11th columns; 15 μL of the drug solution was pipetted from the 2nd column to the 3rd column, blown and evenly mixed; then 15 μL of the drug solution was pipetted from the 3rd column to the 4th column, blown and evenly mixed; the drugs was subjected to a 3-fold dilution to obtain 10 concentrations in total). The 1st and 12th columns of the Echo-384 well plate were supplemented with 30 μL of DMSO.
2. Preparation of Intermediate Plate
500 nL, i.e., 0.5 μL of the diluted compound (or DMSO) in the 200× compound plate was transferred into the corresponding position of V-bottom 384-well plate with Echo. 20 μL of medium was added to each well, centrifuged, shaken and evenly mixed. The concentration of the drugs in each well of the 2nd to 11th column of intermediate plate (i.e., 5× compound plate) were shown in following Table 4.
3.1 The cell plate was taken out from the incubator and observed under a microscope. The diluted compound or DMSO in the intermediate plate was added to the cell plate in 10 μL/well in the corresponding cell plate, and 40 μL of medium was pre-filled in each well.
3.2 The cells were incubated at 37° C. under 5% CO2 for 4 hours.
4.1 1 mM CCF4-AM, solution B, Solution C, and Solution D were used to prepare an appropriate amount of 6× detection solution. The LiveBLAzer™-FRET B/G Loading kit (K1095, Thermo Fisher, Waltham, Massachusetts, USA) kit containing CCF-4AM and solutionB, solutionC, and solutionD was also purchased from invitrogen (K1157, Thermo Fisher, Waltham, Massachusetts, USA).
4.2 The cells were observed under a microscope and the cell plate was equilibrated to room temperature.
4.3 6 μL of CCF-4AM dissolved solution A, 60 μL of solution B, 904 μL of solution C and 30 μL of solution D were pipetted in an EP tube, blown, and evenly mixed to obtain a 6× detection solution. The prepared 6× detection solution was pipetted to a 384-well plate in 10 μL/well.

Row | SMILES | EC50 [nM]
1 | CC(C)C[C@H](NC(=O)[C@H](Cc1ccccc1)NC(=O)[C@H](N)Cc1ccc(O)cc1)C(=O)N1CCC[C@H]1C(=O)N[C@H](CO)C(=O)N[C@@H](CCC(N)=O)C(=O)N[C@@H](Cc1ccc2ccccc2c1)C(=O)N[C@H](C)C(=O)N1Cc2ccccc2C[C@H]1C(=O)N[C@@H](CO)C(=O)O [YW-118, (D-Tyr)-Phe-Leu-Pro-(D-Ser)-Gln-2Nal-(D-Ala)-Tic-Ser-OH] (H-[dY]FLP[dS]Q[2Nal][dA][Tic]S-OH) | 6.9
2 | CC(C)C[C@@H](C(=O)N1CCC[C@H]1C(=O)N[C@H](CO)C(=O)N[C@@H](CCC(N)=O)C(=O)N[C@@H](Cc1ccccc1)C(=O)N[C@H](C)C(=O)N1Cc2ccccc2C[C@H]1C(=O)N[C@@H](CO)C(=O)O)N(C)C(=O)[C@H](Cc1cccc2ccccc12)NC(=O)[C@H](N)Cc1ccc(O)cc1 [YW-199, (D-Tyr)-1Nal-(NMe-Leu)-Pro-(D-Ser)-Gln-Phe-(D-Ala)-Tic-Ser] (H-[dY][1Nal][NMeL]P[dS]QF[dA][Tic]S-OH) | 2.9
3 | CC(C)C[C@@H](C(=O)N1CCC[C@H]1C(=O)N[C@H](CO)C(=O)N[C@@H](CCC(N)=O)C(=O)N[C@@H](Cc1ccc2ccccc2c1)C(=O)N[C@H](C)C(=O)N1Cc2ccccc2C[C@H]1C(=O)N[C@@H](CO)C(=O)O)N(C)C(=O)[C@H](Cc1ccccc1)NC(=O)[C@H](N)Cc1ccc(O)cc1 [YW-164, (D-Tyr)-Phe-(NMe-Leu)-Pro-(D-Ser)-Gln-2Nal-(D-Ala)-Tic-Ser-OH] (H-[dY]F[NMeL]P[dS]Q[2Nal][dA][Tic]S-OH) | 1.1

Same assay, conditions: determination by the method of Effect Embodiment 1; read-out: EC50

Row | SMILES | EC50 [nM]
4 | CC(C)C[C@@H](C(=O)N1CCC[C@H]1C(=O)N[C@H](CO)C(=O)N[C@@H](CCC(N)=O)C(=O)N[C@@H](Cc1ccccc1)C(=O)N[C@H](C)C(=O)N1Cc2ccccc2C[C@H]1C(=O)N(CCO)CC(=O)O)N(C)C(=O)[C@H](Cc1ccccc1)NC(=O)[C@H](N)Cc1ccc(O)cc1 [YW-172, (D-Tyr)-Phe-(NMe-Leu)-Pro-(D-Ser)-Gln-Phe-(D-Ala)-Tic-NHoSer-OH] (H-[dY]F[NMeL]P[dS]QF[dA][Tic][Gly(N-CH2CH2OH)]-OH) | 5.8
5 | CCN(C(=O)[C@H](Cc1ccccc1)NC(=O)[C@H](N)Cc1ccc(O)cc1)[C@@H](CC(C)C)C(=O)N1CCC[C@H]1C(=O)N[C@H](CO)C(=O)N[C@@H](CCC(N)=O)C(=O)N[C@@H](Cc1ccccc1)C(=O)N[C@H](C)C(=O)N1Cc2ccccc2C[C@H]1C(=O)N[C@@H](CO)C(=O)O [YW-183, (D-Tyr)-Phe-(NEt-Leu)-Pro-(D-Ser)-Gln-Phe-(D-Ala)-Tic-Ser] (H-[dY]F[NEtLeu]P[dS]QF[dA][Tic]S-OH) | 9.2
6 | CC(C)C[C@@H](C(=O)N1CCC[C@H]1C(=O)N[C@@H](C(=O)N[C@@H](CCC(N)=O)C(=O)N[C@@H](Cc1ccccc1)C(=O)N[C@H](C)C(=O)N1Cc2ccccc2C[C@H]1C(=O)N[C@@H](CO)C(=O)O)[C@H](C)O)N(C)C(=O)[C@H](Cc1ccccc1)NC(=O)[C@H](N)Cc1ccc(O)cc1 [YW-204, (D-Tyr)-Phe-(NMe-Leu)-Pro-(D-Thr)-Gln-Phe-(D-Ala)-Tic-Ser] (H-[dY]F[NMeL]P[dT]QF[dA][Tic]S-OH; N-terminus assumed) | 62

Results, then the compound that gave them:

Row | EC50 [nM] | SMILES
7 | 5 | CC(C)C[C@@H](C(=O)N1CCC[C@H]1C(=O)N[C@H](CO)C(=O)N[C@@H](CCC(N)=O)C(=O)N[C@@H](Cc1ccccc1)C(=O)N[C@H](C)C(=O)N1Cc2ccccc2C[C@H]1C(=O)N(C)[C@@H](CO)C(=O)O)N(C)C(=O)[C@H](Cc1ccccc1)NC(=O)[C@H](N)Cc1ccc(O)cc1 [YW-166, (D-Tyr)-Phe-(NMe-Leu)-Pro-(D-Ser)-Gln-Phe-(D-Ala)-Tic-(NMe-Ser)-OH] (H-[dY]F[NMeL]P[dS]QF[dA][Tic][NMeS]-OH)
8 | 1.4 | CCCCCC(=O)N[C@H](Cc1ccc(O)cc1)C(=O)N[C@@H](Cc1ccccc1)C(=O)N(C)[C@@H](CC(C)C)C(=O)N1CCC[C@H]1C(=O)N[C@H](CO)C(=O)N[C@@H](CCC(N)=O)C(=O)N[C@@H](Cc1ccccc1)C(=O)N[C@H](C)C(=O)N1Cc2ccccc2C[C@H]1C(=O)N[C@@H](CO)C(=O)O [YW-193, Hexanoyl-(D-Tyr)-Phe-(NMe-Leu)-Pro-(D-Ser)-Gln-Phe-(D-Ala)-Tic-Ser] (Hexanoyl-[dY]F[NMeL]P[dS]QF[dA][Tic]S-OH)
9 | 190 | CC(C)C[C@H](NC(=O)[C@H](Cc1ccccc1)NC(=O)[C@H](N)Cc1ccc(O)cc1)C(=O)N1CC[C@H]1C(=O)N[C@H](CO)C(=O)N[C@@H](CCC(N)=O)C(=O)N[C@@H](Cc1ccccc1)C(=O)N[C@H](C)C(=O)N1Cc2ccccc2C[C@H]1C(=O)N[C@@H](CO)C(=O)O [YW-115, (D-Tyr)-Phe-Leu-Aze-(D-Ser)-Gln-Phe-(D-Ala)-Tic-Ser-OH] (H-[dY]FL[Aze][dS]QF[dA][Tic]S-OH)
10 | 0.8 | CN[C@H](Cc1ccc(O)cc1)C(=O)N[C@@H](Cc1ccccc1)C(=O)N(C)[C@@H](CC(C)C)C(=O)N1CCC[C@H]1C(=O)N[C@H](CO)C(=O)N[C@@H](CCC(N)=O)C(=O)N[C@@H](Cc1ccc2ccccc2c1)C(=O)N[C@H](C)C(=O)N1Cc2ccccc2C[C@H]1C(=O)N[C@@H](CO)C(=O)O [YW-167, (D-NMe-Tyr)-Phe-(NMe-Leu)-Pro-(D-Ser)-Gln-2Nal-(D-Ala)-Tic-Ser-OH] (H-[dNMeY]F[NMeL]P[dS]Q[2Nal][dA][Tic]S-OH)
11 | > 50000 | CC(C)C[C@H](NC(=O)[C@H](Cc1ccccc1)NC(=O)[C@H](N)Cc1ccc(O)cc1)C(=O)N1CCC[C@H]1C(=O)N[C@H](CO)C(=O)N(C)[C@@H](CCC(N)=O)C(=O)N[C@@H](Cc1ccccc1)C(=O)N[C@H](C)C(=O)N1Cc2ccccc2C[C@H]1C(=O)N[C@@H](CO)C(=O)O [YW-107, (D-Tyr)-Phe-Leu-Pro-(D-Ser)-(NMe-Gln)-Phe-(D-Ala)-Tic-Ser-OH] (H-[dY]FLP[dS][NMeQ]F[dA][Tic]S-OH)
12 | 20 | CC(C)C[C@H](NC(=O)[C@H](Cc1ccccc1)NC(=O)[C@@H](Cc1ccc(O)cc1)NC(=O)c1c(O)cccc1O)C(=O)N1CCC[C@H]1C(=O)N[C@H](CO)C(=O)N[C@@H](CCC(N)=O)C(=O)N[C@@H](Cc1ccccc1)C(=O)N[C@H](C)C(=O)N1Cc2ccccc2C[C@H]1C(=O)N[C@@H](CO)C(=O)O [YW-128, 2,6-dihydroxybenzoyl-(D-Tyr)-Phe-Leu-Pro-(D-Ser)-Gln-Phe-(D-Ala)-Tic-Ser-OH] (X8-[dY]FLP[dS]QF[dA][Tic]S-OH)
13 | 9.9 | CC(C)C[C@H](NC(=O)[C@H](Cc1ccccc1)NC(=O)[C@H](N)Cc1ccc(O)cc1)C(=O)N1CCC[C@H]1C(=O)N[C@H](CO)C(=O)N[C@@H](CCC(N)=O)C(=O)N[C@@H](Cc1ccc(C(=O)c2ccccc2)cc1)C(=O)N[C@H](C)C(=O)N1Cc2ccccc2C[C@H]1C(=O)N[C@@H](CO)C(=O)O [YW-119, (D-Tyr)-Phe-Leu-Pro-(D-Ser)-Gln-Bpa-(D-Ala)-Tic-Ser-OH] (H-[dY]FLP[dS]Q[Bpa][dA][Tic]S-OH)
